Data taken from the SangsterLogP compilation.

Assay: method code SF-AS, from DOI: 10.1021/jm00252a008, PMID: 4598022

Row | logP | SMILES
1 | 1.44 | CN1C(=N)S/C(=C/c2ccc([N+](=O)[O-])o2)C1=O
2 | 2.29 | CCN1C(=O)S/C(=C/c2ccc([N+](=O)[O-])o2)C1=O
3 | 1.35 | C/N=C1/NC(=O)/C(=C/C=C/c2ccc([N+](=O)[O-])o2)S1
4 | 1.42 | C/N=C1\SC(=Cc2ccc([N+](=O)[O-])o2)C(=O)N1C
5 | 0.86 | CNc1nc(=O)cc(-c2ccc([N+](=O)[O-])o2)s1
6 | 1.21 | CC(=O)N=C1S/C(=C\c2ccc([N+](=O)[O-])o2)C(=O)N1C (stereo in doubt)
7 | 0.93 | O=C1NC(=S)SC1=CC=Cc1ccc([N+](=O)[O-])o1
8 | 1.05 | CC(=O)N(C)C1=NC(=O)/C(=C/c2ccc([N+](=O)[O-])o2)S1
9 | 1.29 | CC(C)/N=C1\NC(=O)/C(=C/c2ccc([N+](=O)[O-])o2)S1
10 | 1.41 | CSC1=NC(=O)C(=Cc2ccc([N+](=O)[O-])o2)S1 (stereo in doubt)
11 | 1.06 | CN1C(=O)/C(=C\c2ccc([N+](=O)[O-])o2)SC1=S
12 | 0.95 | CC(=O)NC1=NC(=O)/C(=C\C=Cc2ccc([N+](=O)[O-])o2)S1 (stereo in doubt)
13 | 2.42 | CC(C)N1C(=O)S/C(=C\c2ccc([N+](=O)[O-])o2)C1=O
14 | 1.21 | CC(=O)N(C)C1=NC(=O)/C(=C\C=C/c2ccc([N+](=O)[O-])o2)S1
15 | 1.4 | CN1C(=O)SC(=CC=Cc2ccc([N+](=O)[O-])o2)C1=O
16 | 1.22 | CC(C)N=C1SC(=Cc2ccc([N+](=O)[O-])o2)C(=O)N1C(C)C
17 | 1.01 | CC(=O)Nc1nc(=O)cc(-c2ccc([N+](=O)[O-])o2)s1
18 | 0.55 | CN(C)c1nc(=O)cc(-c2ccc([N+](=O)[O-])o2)s1
19 | 2.4 | CCCN1C(=O)S/C(=C\c2ccc([N+](=O)[O-])o2)C1=O

Row | logP | SMILES
20 | 1.46 | C=CCN=C1SC(=Cc2ccc([N+](=O)[O-])o2)C(=O)N1CC=C
21 | 1.21 | CCN1C(=O)C(=Cc2ccc([N+](=O)[O-])o2)S/C1=N\C(C)=O
22 | 1.03 | CC(=O)NC1=NC(=O)/C(=C/c2ccc([N+](=O)[O-])o2)S1
23 | 1.09 | NC1=NC(=O)C(=Cc2ccc([N+](=O)[O-])o2)S1 (stereo in doubt)
24 | 1.16 | CC/N=C1\NC(=O)/C(=C/c2ccc([N+](=O)[O-])o2)S1
25 | 1.78 | CN1C(=O)S/C(=C\c2ccc([N+](=O)[O-])o2)C1=O
26 | 1.32 | CCCN=C1SC(=Cc2ccc([N+](=O)[O-])o2)C(=O)N1CCC
27 | 2.22 | C=CCN1C(=O)S/C(=C\c2ccc([N+](=O)[O-])o2)C1=O
28 | 0.55 | O=c1cc(-c2ccc([N+](=O)[O-])o2)sc(=O)[nH]1
29 | 1.24 | CCC/N=C1\NC(=O)/C(=C/c2ccc([N+](=O)[O-])o2)S1
30 | 1.16 | CN(C)C1=NC(=O)/C(=C/c2ccc([N+](=O)[O-])o2)S1
31 | 1.22 | CCN(CC)C1=NC(=O)/C(=C/c2ccc([N+](=O)[O-])o2)S1
32 | 0.63 | O=C1NC(=O)/C(=C\c2ccc([N+](=O)[O-])o2)S1
33 | 1.44 | CCN1C(=N)SC(=Cc2ccc([N+](=O)[O-])o2)C1=O
34 | 0.74 | O=C1NC(=S)SC1=Cc1ccc([N+](=O)[O-])o1
35 | 1.17 | CCCN1C(=O)/C(=C/c2ccc([N+](=O)[O-])o2)S/C1=N\C(C)=O
36 | 1.41 | O=C1NC(=Nc2ccccc2)SC1=Cc1ccc([N+](=O)[O-])o1
37 | 1.16 | C/N=C1\NC(=O)/C(=C/c2ccc([N+](=O)[O-])o2)S1
